# Earlier results as cited in patent publication US9020605B2, “Electroporation device” (OncoSec Medical Incorporated, priority 2012, dated 2015).
# Details: P being the partition coefficient between octanol and water
substance,measurement,value
bleomycin,log P,very negative
